The test system of test [1] is human neuroblastoma SK-N-MC cells. In words: Inhibition of ROS production induced by xanthine/xanthine oxidase (H2DCFDA probe, LDH-normalized). In kind it is cell-based. The conditions noted are these: XXO 10 μM-100 mU/ml, 3 h, at 10 μg/ml, inhibition observed at 10 and 20 μg/ml, read-out: maximum inhibition of ROS production relating to XXO. On the procedure:
The assay was performed on human neuroblastoma SK-N-MC cells in culture from the American Type Culture Collection (ATCC) (HTB-10), in all cases strict rules of sterility were followed and the manipulation was performed in class II biological safety cabinets following European standard EN 12469. The cells were maintained in Minimum Essential Medium Eagle (MEM) culture medium supplemented with 1 mM sodium pyruvate, 2 mM L-glutamine, 0.1 mM non-essential amino acids, 0.05 mg/ml gentamicin and 10% fetal bovine serum.
The inhibition by the NST0003 compound [(1S,3R,7S,8S,8aR)-1,2,3,7,8,8a-hexahydro-3,7-dimethyl-8-[2-[(2R,4R)-tetrahydro-4-hydroxy-6-oxo-2H-pyran-2-yl]ethyl-1-naphthalenyl propanoate] on the production of reactive oxygen species (ROS) in the SK-N-MC cells, was analyzed. […]
The cells were incubated (at 37° C. and 5% CO2) with these treatments for 3 h, after which time they were washed with HKRB buffer (20 mM HEPES, 103 mM NaCl, 4.77 mM KCl, 0.5 mM CaCl2, 1.2 mM MgCl2, 1.2 mM KH2PO4, 25 mM […], 15 mM glucose; at pH 7.3) after which the 2′,7′-dichlorodihydrofluorescein diacetate (H2DCFDA) probe was added at 30 μM diluted in HKRB buffer and it was incubated for another 2 hours in the same conditions. The reading of the plate was taken in a fluorometer at the conditions of 485 nm for excitation and 538 nm for emission. […]

Test [2] shares this test system. Put plainly: Protection against neuronal death induced by endoplasmic reticulum stress (tunicamycin), WST-1 test. In kind it is cell-based. Conditions: tunicamycin 20 μg/ml, 22 h, at 20 μg/ml, protection at 4, 10, 20 and 40 μg/ml. On the procedure:
To that end, an assay was performed on human neuroblastoma SK-N-MC cells in culture from the ATCC (HTB-10); in all cases strict rules of sterility were followed and the manipulation was performed in class II biological safety cabinets following European standard EN 12469. The cells were maintained in MEM culture medium supplemented with 1 mM sodium pyruvate, 2 mM L-glutamine, 0.1 mM non-essential amino acids, 0.05 mg/ml gentamicin and 10% fetal bovine serum.
The inhibition caused by the compound (1S,3R,7S,8S,8aR)-1,2,3,7,8,8a-hexahydro-3,7-dimethyl-8-[2-[(2R,4R)-tetrahydro-4-hydroxy-6-oxo-2H-pyran-2-yl]ethyl-1-naphthalenyl 2,2-dimethylpropanoate (NST0005) of cell death caused by treatment with tunicamycin (Tm), which generates endoplasmic reticulum stress by inhibition of N-glycosylation of proteins, which triggers cell death, was analyzed. […]
The cells were incubated (at 37° C. and 5% CO2) with these treatments for 22 h, after which time the WST-1 reagent (Roche) was added. The WST-1 Test, as has been previously mentioned, is based on the measurement of the metabolic activity; the metabolically active (live) cells reduce tetrazolium salt to formazan by means of the succinate-tetrazolium reductase system (of the mitochondrial respiratory chain) and the formazan which is formed can be detected colorimetrically since it has an absorbance of 440 nm. […]
For orientation: Tetrazolium assays rely on reduction of a dye to a coloured formazan, in cell work by metabolically active cells.

Consider `CCC(=O)O[C@H]1C[C@@H](C)C=C2C=C[C@H](C)[C@H](CC[C@@H]3C[C@@H](O)CC(=O)O3)[C@H]21` [NST0003, (1S,3R,7S,8S,8aR)-1,2,3,7,8,8a-hexahydro-3,7-dimethyl-8-[2-[(2R,4R)-tetrahydro-4-hydroxy-6-oxo-2H-pyran-2-yl]ethyl-1-naphthalenyl propanoate], for which the inhibition (in general, how much of the control response was suppressed) at 10 µg/mL in test [1] turned out to be 33%. As to `C[C@H]1C=C2C=C[C@H](C)[C@H](CC[C@@H]3C[C@@H](O)CC(=O)O3)[C@H]2[C@@H](OC(=O)C(C)(C)C)C1` [NST0005], the “maximum reduction of the percentage of cell death relating to death caused by Tunicamycin” value in test [2] worked out at 38%.

Source of the values: patent publication US20110319484A1, “NEUROPROTECTIVE COMPOUNDS” (Parque Tecnologico de Ciencias de la Salud, priority 2009, published 2011).
